PubChem BioAssay AID328 (DTP/NCI, 2004)
Several values for one entry are separate records, joined by “and”; a condition that tells them apart may be missing. Identical values can stand only once. Toxic doses and inconclusive results are not listed.

Test system: BDF1 mice, P388 leukemia ip, median survival T/C
Experiment: NCI In Vivo Anticancer Drug Screen. Data for tumor model P388 Leukemia (intraperitoneal) in B6D2F1 (BDF1) mice
Details: endpoint: median survival time, higher = longer survival
How it was run: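 Read-out is survival of treated animals expressed relative to the vehicle group, as a T/C ratio.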

[1] = dose: 100.0 mg/kg/injection, schedule: Q04DX003 (ip), vehicle: saline
[2] = dose: 12.5 mg/kg/injection, schedule: Q01DX009 (ip), vehicle: saline
[3] = dose: 50.0 mg/kg/injection, schedule: Q01DX009 (ip), vehicle: saline with Tween-80
[4] = dose: 100.0 mg/kg/injection, schedule: Q01DX009 (ip), vehicle: saline with Tween-80
[5] = dose: 200.0 mg/kg/injection, schedule: Q01DX009 (ip), vehicle: saline with Tween-80
[6] = dose: 6.25 mg/kg/injection, schedule: Q01DX009 (ip), vehicle: saline
[7] = dose: 20.0 mg/kg/injection, schedule: Q01DX009 (ip), vehicle: Klucel (hydroxypropylcellulose) (HPC)
[8] = dose: 100.0 mg/kg/injection, schedule: Q01DX009 (ip), vehicle: Klucel (hydroxypropylcellulose) (HPC)
[9] = dose: 100.0 mg/kg/injection, schedule: Q04DX003 (ip), vehicle: Klucel (hydroxypropylcellulose) (HPC)
[10] = dose: 200.0 mg/kg/injection, schedule: Q01DX009 (ip), vehicle: Klucel (hydroxypropylcellulose) (HPC)
[11] = dose: 100.0 mg/kg/injection, schedule: Q04DX003 (ip), vehicle: saline with Tween-80
[12] = dose: 200.0 mg/kg/injection, schedule: Q04DX003 (ip), vehicle: saline with Tween-80

For `C[n+]1c(/C=C/c2ccc(N(CCC(=O)O)CCC(=O)O)cc2)ccc2cc(Cl)ccc21`, the T/C (dose: 12.5 mg/kg/injection, schedule: Q01DX001 (ip), vehicle: saline with Tween-80) was 109 % of control and the T/C (dose: 25.0 mg/kg/injection, schedule: Q01DX001 (ip), vehicle: saline with Tween-80) was 88 % of control.

In the case of `COC1c2cnc(C)n2C=CN1C(C)=O` (stereo not drawn), the T/C [1] is reported as 99 % of control, the T/C (dose: 200.0 mg/kg/injection, schedule: Q04DX003 (ip), vehicle: saline) is reported as 104 % of control and the T/C (dose: 300.0 mg/kg/injection, schedule: Q04DX003 (ip), vehicle: saline) is reported as 94 % of control.

`O=c1[nH]c2ccccc2nc1CBr` was tested, and the T/C (dose: 6.25 mg/kg/injection, schedule: Q01DX009 (ip), vehicle: saline with Tween-80) was 118 % of control and 122 % of control, the T/C (dose: 7.5 mg/kg/injection, schedule: Q04DX003 (ip), vehicle: saline with Tween-80) was 118 % of control and the T/C (dose: 12.5 mg/kg/injection, schedule: Q01DX009 (ip), vehicle: saline with Tween-80) was 118 % of control. The T/C (dose: 12.5 mg/kg/injection, schedule: Q04DX003 (ip), vehicle: saline with Tween-80) was 109 % of control, the T/C (dose: 15.0 mg/kg/injection, schedule: Q04DX003 (ip), vehicle: saline with Tween-80) was 104 % of control and the T/C (dose: 25.0 mg/kg/injection, schedule: Q04DX003 (ip), vehicle: saline with Tween-80) was 113 % of control. For the same compound, the T/C (dose: 30.0 mg/kg/injection, schedule: Q04DX003 (ip), vehicle: saline with Tween-80) was 118 % of control and the T/C (dose: 60.0 mg/kg/injection, schedule: Q04DX003 (ip), vehicle: saline with Tween-80) was 100 % of control.

With `CC(C)CCCC(C)C1CCC2C3CC=C4CC([S+](C)C)CCC4(C)C3CCC12C` (stereo not drawn) the T/C [2] was 109 % of control and the T/C (dose: 25.0 mg/kg/injection, schedule: Q01DX009 (ip), vehicle: saline) was 86 % of control.

For `O=c1[nH]nc(NCCCO)c2ccccc12`, the T/C [3] was 112 % of control, the T/C [4] was 87 % of control and the T/C [5] was 96 % of control.

With `CN=C(N)NCCCCCCCCNC(N)=NC` the T/C [6] was 110 % of control and the T/C [2] was 122 % of control.

For `CC(=Nc1ccccc1)C1=C(O)C(Cc2ccccc2)NC1=O` (stereo not drawn), the T/C [3] was 124 % of control.

`CCOC(=O)CNC(=O)CCCCSc1ncnc2nc[nH]c12` was tested, and the T/C [7] was 97 % of control and 98 % of control, the T/C (dose: 40.0 mg/kg/injection, schedule: Q01DX009 (ip), vehicle: Klucel (hydroxypropylcellulose) (HPC)) was 91 % of control and the T/C (dose: 80.0 mg/kg/injection, schedule: Q01DX009 (ip), vehicle: Klucel (hydroxypropylcellulose) (HPC)) was 101 % of control and 111 % of control. The T/C (dose: 160.0 mg/kg/injection, schedule: Q01DX009 (ip), vehicle: Klucel (hydroxypropylcellulose) (HPC)) was 89 % of control and 100 % of control, the T/C (dose: 320.0 mg/kg/injection, schedule: Q01DX009 (ip), vehicle: Klucel (hydroxypropylcellulose) (HPC)) was 87 % of control and 89 % of control and the T/C (dose: 640.0 mg/kg/injection, schedule: Q01DX009 (ip), vehicle: Klucel (hydroxypropylcellulose) (HPC)) was 86 % of control.

`Cc1ccccc1/C=C1\CC(C)(C)c2ccccc2C1=O` was tested, and the T/C [8] was 100 % of control, the T/C [9] was 95 % of control and the T/C [10] was 95 % of control. For the same compound, the T/C (dose: 200.0 mg/kg/injection, schedule: Q04DX003 (ip), vehicle: Klucel (hydroxypropylcellulose) (HPC)) was 95 % of control, the T/C (dose: 400.0 mg/kg/injection, schedule: Q01DX009 (ip), vehicle: Klucel (hydroxypropylcellulose) (HPC)) was 104 % of control and the T/C (dose: 400.0 mg/kg/injection, schedule: Q04DX003 (ip), vehicle: Klucel (hydroxypropylcellulose) (HPC)) was 95 % of control.

With `Clc1ccc2c(c1)-c1ccccc1C1=NCCN12` the T/C (dose: 2.5 mg/kg/injection, schedule: Q04DX003 (ip), vehicle: Klucel (hydroxypropylcellulose) (HPC)) was 110 % of control, the T/C (dose: 4.4 mg/kg/injection, schedule: Q04DX003 (ip), vehicle: Klucel (hydroxypropylcellulose) (HPC)) was 100 % of control and the T/C (dose: 5.0 mg/kg/injection, schedule: Q01DX009 (ip), vehicle: Klucel (hydroxypropylcellulose) (HPC)) was 95 % of control. For the same compound, the T/C (dose: 5.0 mg/kg/injection, schedule: Q04DX003 (ip), vehicle: Klucel (hydroxypropylcellulose) (HPC)) was 100 % of control, the T/C (dose: 6.6 mg/kg/injection, schedule: Q04DX003 (ip), vehicle: Klucel (hydroxypropylcellulose) (HPC)) was 91 % of control and the T/C (dose: 10.0 mg/kg/injection, schedule: Q01DX009 (ip), vehicle: Klucel (hydroxypropylcellulose) (HPC)) was 113 % of control. The T/C (dose: 10.0 mg/kg/injection, schedule: Q04DX003 (ip), vehicle: Klucel (hydroxypropylcellulose) (HPC)) was 95 % of control, the T/C (dose: 15.0 mg/kg/injection, schedule: Q04DX003 (ip), vehicle: Klucel (hydroxypropylcellulose) (HPC)) was 91 % of control and the T/C [7] was 113 % of control.

For `CCCCCCCOc1ccc(OCCCC[N+]2(CC)CCCCC2)cc1`, the T/C [6] was 100 % of control.

In the case of `Cc1ccc2c(c1)CC(C)([CH2][Hg][Cl])O2` (stereo not drawn), the T/C (dose: 3.0 mg/kg/injection, schedule: Q01DX009 (ip), vehicle: Klucel (hydroxypropylcellulose) (HPC)) is reported as 94 % of control, the T/C (dose: 3.0 mg/kg/injection, schedule: Q04DX003 (ip), vehicle: Klucel (hydroxypropylcellulose) (HPC)) is reported as 103 % of control and the T/C (dose: 6.0 mg/kg/injection, schedule: Q01DX009 (ip), vehicle: Klucel (hydroxypropylcellulose) (HPC)) is reported as 105 % of control. The T/C (dose: 6.0 mg/kg/injection, schedule: Q04DX003 (ip), vehicle: Klucel (hydroxypropylcellulose) (HPC)) was 94 % of control, the T/C (dose: 12.0 mg/kg/injection, schedule: Q01DX009 (ip), vehicle: Klucel (hydroxypropylcellulose) (HPC)) was 119 % of control and the T/C (dose: 12.0 mg/kg/injection, schedule: Q04DX003 (ip), vehicle: Klucel (hydroxypropylcellulose) (HPC)) was 100 % of control.

`CC(C)CCSc1nc(N)nc2nc[nH]c12` was tested, and the T/C (dose: 100.0 mg/kg/injection, schedule: Q01DX009 (ip), vehicle: other) was 86 % of control, the T/C [11] was 100 % of control and the T/C (dose: 200.0 mg/kg/injection, schedule: Q01DX009 (ip), vehicle: other) was 90 % of control. The T/C [12] was 109 % of control, the T/C (dose: 400.0 mg/kg/injection, schedule: Q01DX009 (ip), vehicle: other) was 109 % of control and the T/C (dose: 400.0 mg/kg/injection, schedule: Q04DX003 (ip), vehicle: saline with Tween-80) was 109 % of control.

For `CCCOP(=S)(N1CC1C)N1CC1(C)C` (stereo not drawn), the T/C (dose: 33.0 mg/kg/injection, schedule: Q01DX009 (ip), vehicle: saline with Tween-80) was 154 % of control, the T/C [3] was 186 % of control and the T/C (dose: 75.0 mg/kg/injection, schedule: Q01DX009 (ip), vehicle: saline with Tween-80) was 190 % of control. For the same compound, the T/C [11] was 159 % of control and 166 % of control, the T/C (dose: 150.0 mg/kg/injection, schedule: Q04DX003 (ip), vehicle: saline with Tween-80) was 208 % of control and the T/C [12] was 154 % of control.

With `COC(=O)C(CCC(=O)O)NC(=O)OCc1ccccc1` (stereo not drawn) the T/C (dose: 25.0 mg/kg/injection, schedule: Q04DX003 (ip), vehicle: Klucel (hydroxypropylcellulose) (HPC)) was 104 % of control, the T/C (dose: 50.0 mg/kg/injection, schedule: Q04DX003 (ip), vehicle: Klucel (hydroxypropylcellulose) (HPC)) was 113 % of control and the T/C [9] was 95 % of control and 109 % of control.

For `c1nc(N2CC2)c2cnn(C3CCCCO3)c2n1` (stereo not drawn), the T/C (dose: 25.0 mg/kg/injection, schedule: Q04DX003 (ip), vehicle: saline) was 109 % of control, the T/C (dose: 50.0 mg/kg/injection, schedule: Q04DX003 (ip), vehicle: saline) was 100 % of control and the T/C [8] was 95 % of control. For the same compound, the T/C [1] was 100 % of control, the T/C (dose: 150.0 mg/kg/injection, schedule: Q04DX003 (ip), vehicle: Klucel (hydroxypropylcellulose) (HPC)) was 120 % of control and the T/C [10] was 116 % of control. The T/C (dose: 225.0 mg/kg/injection, schedule: Q04DX003 (ip), vehicle: Klucel (hydroxypropylcellulose) (HPC)) was 120 % of control.

`CCC1(C)CCC2=C(CCC3C(C)(C(=O)O)CCCC23C)C1` (stereo not drawn) was tested, and the T/C [3] was 100 % of control, the T/C (dose: 50.0 mg/kg/injection, schedule: Q04DX003 (ip), vehicle: saline with Tween-80) was 96 % of control and the T/C [4] was 87 % of control. The T/C [5] was 100 % of control and the T/C [12] was 96 % of control.

For `Cc1ccc(Oc2ccc3cc[n+](C)cc3c2)cc1`, the T/C (dose: 2.75 mg/kg/injection, schedule: Q01DX009 (ip), vehicle: saline) was 94 % of control, the T/C (dose: 4.12 mg/kg/injection, schedule: Q01DX009 (ip), vehicle: saline) was 105 % of control and the T/C (dose: 9.5 mg/kg/injection, schedule: Q01DX009 (ip), vehicle: saline) was 99 % of control. For the same compound, the T/C [2] was 118 % of control.

With `CCCC(=O)Nc1ccc([N+](=O)[O-])cc1OC` the T/C [4] was 90 % of control, the T/C [5] was 100 % of control and the T/C (dose: 400.0 mg/kg/injection, schedule: Q01DX009 (ip), vehicle: saline with Tween-80) was 100 % of control.
